The text below walks through data of patent publication US6511997B1, “Aminopyrazole derivatives” (Teikoku Hormone Mfg. Co., Ltd., priority 1998, dated 2003).

By melting point is commonly meant the temperature of the solid-liquid transition. As to `Cn1nc(-c2ccc(F)cc2)c(-c2ccncc2)c1NC(=O)C(F)c1ccccc1` (stereo not drawn) [Example 74, 3-(4-Fluorophenyl)-5-(α-fluorophenylacetylamino)-1-methyl-4-(4-pyridyl)pyrazole], the melting point was 92.1 to 96.1 °C. `Cn1nc(-c2ccc(F)cc2)c(-c2ccncc2)c1NC(=O)Cc1ccccn1` [Example 76, 3-(4-Fluorophenyl)-1-methyl-4-(4-pyridyl)-5-(2-pyridylacetylamino)pyrazole] returned a melting point of 148.9 to 149.4 °C. The same measure for `Cn1nc(-c2ccc(F)cc2)c(-c2ccncc2)c1NC(=O)Cc1cccnc1` [Example 77, 3-(4-Fluorophenyl)-1-methyl-4-(4-pyridyl)-5-(3-pyridylacetylamino)pyrazole]: 220 to 220.9 °C; for `Cn1nc(-c2ccc(F)cc2)c(-c2ccncc2)c1NC(=O)Cc1ccncc1` [Example 78, 3-(4-Fluorophenyl)-1-methyl-4-(4-pyridyl)-5-(4-pyridylacetylamino)pyrazole]: 141.3 to 143.4 °C; for `Cn1cccc1CC(=O)Nc1c(-c2ccncc2)c(-c2ccc(F)cc2)nn1C` [Example 79, 3-(4-Fluorophenyl)-1-methyl-5-(1-methylpyrrol-2-ylacetylamino)-4-(4-pyridyl)pyrazole]: 165.1 to 168.1 °C. With `Cn1nc(-c2ccc(F)cc2)c(-c2ccncc2)c1NC(=O)Cc1ccsc1` [Example 80, 3-(4-Fluorophenyl)-1-methyl-4-(4-pyridyl)-5-(3-thienylacetylamino)pyrazole] the figure was 151.9 to 154.6 °C. The same measure for `Cn1nc(-c2ccc(F)cc2)c(-c2ccncc2)c1NC(=O)Cc1c[nH]c2ccccc12` [Example 82, 3-(4-Fluorophenyl)-5-(indol-3-ylacetylamino)-1-methyl-4-(4-pyridyl)pyrazole]: 66.9 to 68.8 °C; for `Cn1nc(-c2ccc(F)cc2)c(-c2ccncc2)c1NC(=O)Cc1c(F)ccc([N+](=O)[O-])c1Cl` [Example 83, 5-(2-chloro-6-fluoro-3-nitrophenylacetylamino)-3-(4-fluorophenyl)-1-methyl-4-(4-pyridyl)pyrazole]: 129.2 to 130.6 °C; for `C[C@H](NC(=O)OCc1ccccc1)C(=O)Nc1n[nH]c(-c2ccc(F)cc2)c1-c1ccncc1` [Example 84, 3-(N′-carbobenzoxy-L-alanylamino)-5-(4-fluorophenyl)-4-(4-pyridyl)pyrazole]: 190 to 191.3 °C. Consider `CC(C)[C@H](NC(=O)OCc1ccccc1)C(=O)Nc1n[nH]c(-c2ccc(F)cc2)c1-c1ccncc1` [Example 85, 3-(N′-carbobenzoxy-L-valylamino)-5-(4-fluorophenyl)-4-(4-pyridyl)pyrazole], for which the melting point is 231.1 °C. With `C[C@H](NC(=O)OC(C)(C)C)C(=O)Nc1n[nH]c(-c2ccc(F)cc2)c1-c1ccncc1` [Example 86, 3-(N′-Carbo-t-butoxy-L-alanylamino)-5-(4-fluorophenyl)-4-(4-pyridyl)pyrazole] the figure was 223 to 224.7 °C; with `CC(C)[C@H](NC(=O)OC(C)(C)C)C(=O)Nc1n[nH]c(-c2ccc(F)cc2)c1-c1ccncc1` [Example 87, 3-(N′-Carbo-t-butoxy-L-valylamino)-5-(4-fluorophenyl)-4-(4-pyridyl)pyrazole], 217.1 to 217.6 °C; with `CC(C)(C)OC(=O)N1CCC[C@H]1C(=O)Nc1n[nH]c(-c2ccc(F)cc2)c1-c1ccncc1` [Example 88, 3-(N′-Carbo-t-butoxy-L-prolylamino)-5-(4-fluorophenyl)-4-(4-pyridyl)pyrazole], 124.6 to 125.7 °C. With `CN(C(=O)OC(C)(C)C)[C@@H](Cc1ccccc1)C(=O)Nc1n[nH]c(-c2ccc(F)cc2)c1-c1ccncc1` [Example 89, 3-(N′-Carbo-t-butoxy-N′-methyl-L-Phenylalanylamino)-5-(4-fluorophenyl)-4-(4-pyridyl)pyrazole] the figure was 232.4 to 233.1 °C; with `O=C(Cc1ccccc1[N+](=O)[O-])Nc1n[nH]c(-c2ccc(F)cc2)c1-c1ccncc1` [Example 92, 5-(4-fluorophenyl)-3-(2-nitrophenylacetylamino)-4-(4-pyridyl)pyrazole], 242.4 to 244.1 °C. Compound `Nc1ccccc1CC(=O)Nc1n[nH]c(-c2ccc(F)cc2)c1-c1ccncc1` [Example 93, 5-(4-fluorophenyl)-3-(2-aminophenylacetylamino)-4-(4-pyridyl)pyrazole] displayed a melting point of 196.3 to 197.1 °C.

With `Cn1nc(-c2ccc(F)cc2)c(-c2ccncc2)c1NC(=O)Cc1cccc(N)c1` [Example 94, 5-(3-Aminophenylacetylamino)-3-(4-fluorophenyl)-1-methyl-4-(4-pyridyl)pyrazole], the melting point fell in the range of 110.6 to 119 °C. With `Cn1nc(-c2ccc(F)cc2)c(-c2ccncc2)c1NC(=O)Cc1ccc(O)cc1` [Example 95, 5-(4-hydroxyphenylacetylamino)-3-(4-fluorophenyl)-1-methyl-4-(4-pyridyl)pyrazole] the figure was 127.1 to 128.6 °C; with `CCn1nc(-c2ccc(F)cc2)c(-c2ccncc2)c1NC(=O)Cc1ccccc1` [Example 97, 1-Ethyl-3-(4-fluorophenyl)-5-phenylacetylamino-4-(4-pyridyl)pyrazole], 219 to 221.2 °C; with `CCn1nc(-c2ccc(F)cc2)c(-c2ccncc2)c1NC(=O)Cc1ccccc1Cl` [Example 98, 5-(2-Chlorophenylacetylamino)-1-ethyl-3-(4-fluorophenyl)-4-(4-pyridyl)pyrazole], 226 to 232.3 °C. `CCCn1nc(-c2ccc(F)cc2)c(-c2ccncc2)c1NC(=O)Cc1ccccc1` [Example 99, 3-(4-Fluorophenyl)-5-phenylacetylamino-1-propyl-4-(4-pyridyl)pyrazole] yielded a melting point of 176.5 to 178.5 °C. In turn, `CCn1nc(-c2ccc(F)cc2)c(-c2ccncc2)c1NC(=O)Cc1ccccn1` [Example 100, 1-Ethyl-3-(4-fluorophenyl)-4-(4-pyridyl)-5-(2-pyridylacetylamino)pyrazole] displayed a melting point of 147.5 to 149.5 °C. The same measure for `COc1ccccc1CC(=O)Nc1c(-c2ccncc2)c(-c2ccc(F)cc2)nn1CCOCc1ccccc1` [Example 103, 1-(2-Benzyloxyethyl)-3-(4-fluorophenyl)-5-(2-methoxyphenylacetylamino)-4-(4-pyridyl)pyrazole]: 142.9 to 144.2 °C; for `COc1ccccc1CC(=O)Nc1c(-c2ccncc2)c(-c2ccc(F)cc2)nn1CCO` [Example 104, 3-(4-fluorophenyl)-1-(2-hydroxyethyl)-5-(2-methoxyphenylacetylamino)-4-(4-pyridyl)pyrazole]: 200.6 to 204.2 °C. With `O=C(Cc1ccccc1)Nc1c(-c2ccncc2)c(-c2ccc(F)cc2)nn1CCO` [Example 105, 3-(4-Fluorophenyl)-1-(2-hydroxyethyl)-5-phenylacetylamino-4-(4-pyridyl)pyrazole] the figure was 180.3 to 183.6 °C; with `O=C(Cc1ccccc1Cl)Nc1c(-c2ccncc2)c(-c2ccc(F)cc2)nn1-c1ccccc1` [Example 107, 5-(2-chlorophenylacetylamino)-3-(4-fluorophenyl)-1-phenyl-4-(4-pyridyl)pyrazole], 265.2 to 268 °C; with `Cn1nc(-c2ccc3c(c2)OCO3)c(-c2ccncc2)c1NC(=O)Cc1ccccc1` [Example 109, 1-methyl-3-(3,4-methylenedioxyphenyl)-5-phenylacetylamino-4-(4-pyridyl)pyrazole], 127.5 to 132.1 °C. As to `Cn1nc(-c2ccc3c(c2)OCO3)c(-c2ccncc2)c1NC(=O)Cc1ccc(F)c(Cl)c1` [Example 110, 5-(3-Chloro-4-fluorophenylacetylamino)-1-methyl-3-(3,4-methylenedioxyphenyl)-4-(4-pyridyl)pyrazole], the melting point lay in the range of 206.9 to 208.7 °C.

`Cn1nc(-c2ccc(Cl)c(Cl)c2)c(-c2ccncc2)c1NC(=O)Cc1ccccc1` [Example 111, 3-(3,4-Dichlorophenyl)-1-methyl-5-phenylacetylamino-4-(4-pyridyl)pyrazole] displayed a melting point of 198.4 to 199.1 °C. The same measure for `Cn1nc(-c2ccc(F)c(Cl)c2)c(-c2ccncc2)c1NC(=O)Cc1ccc(F)cc1Cl` [Example 112, 3-(3-Chloro-4-fluorophenyl)-5-(2-chloro-4-fluorophenylacetylamino)-1-methyl-4-(4-pyridyl)pyrazole]: 162.8 to 163.9 °C; for `Cn1nc(-c2ccc(F)c(Cl)c2)c(-c2ccncc2)c1NC(=O)Cc1ccccc1` [Example 113, 3-(3-Chloro-4-fluorophenyl)-1-methyl-5-phenylacetylamino-4-(4-pyridyl)pyrazole]: 194.2 to 194.7 °C. With `Cn1nc(-c2ccc(F)c(Cl)c2)c(-c2ccncc2)c1NC(=O)Cc1c(F)c(F)c(F)c(F)c1F` [Example 114, 3-(3-Chloro-4-fluorophenyl)-1-methyl-5-(2,3,4,5,6-pentafluorophenylacetylamino)4-(4-pyridyl)pyrazole] the figure was 194.7 to 196 °C. With `Cn1nc(-c2ccc(Cl)c(Cl)c2)c(-c2ccncc2)c1NC(=O)Cc1ccc(F)cc1Cl` [Example 115, 5-(2-Chloro-4-fluorophenylacetylamino)-3-(3,4-dichlorophenyl)-1-methyl-4-(4-pyridyl)pyrazole] the figure was 279.3 to 280.1 °C; with `Cn1nc(NC(=O)Cc2ccccc2)c(-c2ccncc2)c1-c1ccc(F)cc1` [Example 116, 5-(4-fluorophenyl)-1-methyl-3-phenylacetylamino-4-(4-pyridyl)pyrazole], 157.6 to 160.1 °C; with `Cn1nc(-c2ccc(F)cc2)c(-c2ccncc2)c1NC(=O)Cc1ccccc1` [Example 117, 3-(4-Fluorophenyl)-1-methyl-5-phenylacetylamino-4-(4-pyridyl)pyrazole], 164.9 to 166.5 °C. `Cn1nc(NC(=O)Cc2ccccc2Cl)c(-c2ccncc2)c1-c1ccc(F)cc1` [Example 118, 3-(2-Chlorophenylacetylamino)-5-(4-fluorophenyl)-1-methyl-4-(4-pyridyl)pyrazole] returned a melting point of 193.8 to 195.3 °C. The compound `CN(C(=O)Cc1ccccc1)c1nn(C)c(-c2ccc(F)cc2)c1-c1ccncc1` [Example 119, 5-(4-fluorophenyl)-1-methyl-3-(N-methyl-N-phenylacetylamino)-4-(4-pyridyl)pyrazole] showed a melting point of 169.8 to 171.1 °C.
